From patent US9258954B2, “Plant having enhanced resistance to environmental stress” (RIKEN, priority 2011, dated 2016) come the findings set out here.

The subject of this test is Arabidopsis thaliana L. wild strain (Col-0). Particulars: 10 mM aqueous acetic acid applied to soil in pot for 9 days; compared to plant without treatment and plant treated with 0.5 mM acetic acid; FIG. 19.

Experimental: hda6 mutant strain (axe 1-5 or sil1) and a parent strain or wild strain thereof were grown in pots at 22° C. under the conditions of 16 hours in the light and 8 hours in the dark for 3 weeks. Thereafter, water supply was terminated and the cultivation was continued at 22° C. and a humidity of 40% under the conditions of 16 hours in the light and 8 hours in the dark for about 2 weeks. In this manner, drought stress was gently given to the strains. After water was supplied again, the strains were grown at 22° C. under the conditions of 16 hours in the light and 8 hours in the dark for 5 days. The number of plants which recovered the growth was counted to determine a survival rate. The experiment was repeated three times using 40 plants per strain per experiment to calculate an average and standard deviation for the survival rate.

Consider `CC(=O)O` [acetic acid], for which the “drought-stress resistance (survival after drought-stress resistance test)” value is recorded as “remarkably strong drought-stress resistance”.
